Experimental data as given in US8871777B2, “Phenylpyrimidone compounds, the pharmaceutical compositions, preparation methods and uses thereof” (Topharman Shanghai Co., Ltd., priority 2008, dated 2014).
Where two headings read alike, the source gives them in different places.

What was measured:
[1] = target: T1, human blood platelet PDE5 (Homo sapiens, UniProt O76074); experiment: PDE5 enzyme inhibition activity test (scintillation proximity); format: biochemical
T1 construct: obtained by suitably treating various tissues and separating the enzyme with FPLC; from tissue; host or cells: human blood platelets
Method: (§1) More specifically, PDE5 and PDE3 were obtained from human blood platelet, and PDE6 was separated from bovine retina. Upon enzyme was separated out, the enzyme inhibition activity test would be carried out immediately. The said enzyme inhibition activity test was performed by directly detecting the scintillation proximity of AMP/GMP using TRKQ7100 and TRKQ7090 kits, which was generally as follows. In the presence of different concentrations of inhibitor and a small amount of substrate, 10 μl of buffer (50 mM Tris/HCl PH 7.5, 8.3 mM MgCl2, 1.7 mM EGTA) was added, and then water was added to a final volume of 100 μl. The reaction was initiated with a fixed amount of enzyme, incubated at 30° C. for 30 min, and then quenched with 50 μl of yttrium silicate beads comprising zinc sulphate. After shaken for 20 min, the reaction mixture was put in dark and settled for 30 min, and then readed on a BECKMAN LS6500 MULTI-PURPOSE SCINTILLATION COUNTER.

PDE6 in bovine retina = target: T2, PDE6 in bovine retina (Bos taurus, UniProt P11541+P23439); experiment: PDE6 enzyme inhibition activity test (scintillation proximity); format: biochemical; settings: for PDE6 IC50/PDE5 IC50: selectivity, ratio of IC50 PDE6/IC50 PDE5
T2 construct: obtained by suitably treating various tissues and separating the enzyme with FPLC; from tissue; host or cells: bovine retina
T2 sequence (P11541 2-856 limits assumed): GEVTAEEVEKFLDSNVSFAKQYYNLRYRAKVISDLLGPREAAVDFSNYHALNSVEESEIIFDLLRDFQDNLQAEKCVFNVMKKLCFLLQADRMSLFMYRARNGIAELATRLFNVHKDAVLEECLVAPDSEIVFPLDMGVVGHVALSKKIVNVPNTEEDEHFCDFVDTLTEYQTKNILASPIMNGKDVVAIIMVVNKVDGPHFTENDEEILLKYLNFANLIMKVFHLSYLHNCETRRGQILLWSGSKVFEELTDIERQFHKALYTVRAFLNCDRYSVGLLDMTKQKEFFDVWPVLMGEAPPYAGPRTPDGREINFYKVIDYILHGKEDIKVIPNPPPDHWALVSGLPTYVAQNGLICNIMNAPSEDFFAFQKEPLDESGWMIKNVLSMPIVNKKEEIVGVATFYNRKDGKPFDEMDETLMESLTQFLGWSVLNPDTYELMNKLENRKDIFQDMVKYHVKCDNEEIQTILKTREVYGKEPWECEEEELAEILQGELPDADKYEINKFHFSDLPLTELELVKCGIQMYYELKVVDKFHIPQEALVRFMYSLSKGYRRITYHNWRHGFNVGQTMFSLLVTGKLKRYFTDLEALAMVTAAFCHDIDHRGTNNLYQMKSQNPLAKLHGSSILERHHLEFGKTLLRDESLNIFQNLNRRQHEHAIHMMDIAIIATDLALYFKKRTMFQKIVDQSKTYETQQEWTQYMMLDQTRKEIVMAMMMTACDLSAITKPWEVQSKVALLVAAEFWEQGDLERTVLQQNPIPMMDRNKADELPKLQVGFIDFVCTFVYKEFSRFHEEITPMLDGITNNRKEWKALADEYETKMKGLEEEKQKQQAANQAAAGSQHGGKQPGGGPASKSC
T2 sequence (P23439 2-850 limits assumed): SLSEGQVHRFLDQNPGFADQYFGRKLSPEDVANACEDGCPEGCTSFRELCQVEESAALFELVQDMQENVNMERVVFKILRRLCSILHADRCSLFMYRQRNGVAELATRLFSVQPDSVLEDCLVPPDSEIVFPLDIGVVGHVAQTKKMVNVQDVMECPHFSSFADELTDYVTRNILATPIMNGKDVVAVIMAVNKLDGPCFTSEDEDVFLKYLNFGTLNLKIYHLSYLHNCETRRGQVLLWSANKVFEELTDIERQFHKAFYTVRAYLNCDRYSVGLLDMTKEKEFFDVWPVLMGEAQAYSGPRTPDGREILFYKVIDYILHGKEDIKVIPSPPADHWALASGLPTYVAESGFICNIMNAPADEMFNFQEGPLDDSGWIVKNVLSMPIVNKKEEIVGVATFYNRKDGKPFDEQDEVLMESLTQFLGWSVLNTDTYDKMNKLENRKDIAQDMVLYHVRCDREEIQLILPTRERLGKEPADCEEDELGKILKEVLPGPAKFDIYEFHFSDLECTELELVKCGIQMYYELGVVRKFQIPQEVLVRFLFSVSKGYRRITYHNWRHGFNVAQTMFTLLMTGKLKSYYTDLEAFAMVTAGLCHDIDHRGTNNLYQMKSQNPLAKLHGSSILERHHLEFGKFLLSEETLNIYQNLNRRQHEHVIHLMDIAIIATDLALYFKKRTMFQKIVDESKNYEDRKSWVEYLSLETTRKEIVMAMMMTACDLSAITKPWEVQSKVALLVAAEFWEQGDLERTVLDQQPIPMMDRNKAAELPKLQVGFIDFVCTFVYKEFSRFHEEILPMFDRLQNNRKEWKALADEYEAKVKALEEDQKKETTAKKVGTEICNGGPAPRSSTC
Method: as §1

[2] = PDE6 separated from bovine retina, read-out: PDE6 IC50

Row | SMILES | IC50 ([1]; PDE5 table) [nM] | IC50 ([1]; as repeated in the PDE6 table) [nM] | IC50 (PDE6 in bovine retina; [2]) [nM] | PDE6 IC50/PDE5 IC50 (PDE6 in bovine retina) | IC50 (PDE6 in bovine retina) [nM]
1 | CCCOc1ccc(NC(=O)N2CCCC2)cc1-c1nc(CC)c(CC)c(=O)[nH]1 [Example 49] | 1.86 | 1.86 | 620 | 10.5 | 
2 | CCCOc1ccc(C(=O)NC(CC(N)=O)C(=O)O)cc1-c1nc(CC)c(CC)c(=O)[nH]1 (centres unmarked) [Example 146, 2-(3-(4,5-diethyl-1,6-dihydro-6-oxopyrimidin-2-yl)-4-n-propoxybenzamido)-3-aminoformylpropionic acid] | 0.93 | 0.93 | 6.64 | 7.2 | 
3 | CCCOc1ccc(N/C(=N/CC)N(CC)CC)cc1-c1nc(CC)c(CC)c(=O)[nH]1 [Example 46, N-[3-(4,5-diethyl-1,6-dihydro-6-oxopyrimidin-2-yl)-4-n-propoxyphenyl]-N′,N″-triethylguanidine] | 1.09 | 1.09 | 642 | 589.0 | 
4 | CCCOc1ccc(NC(=O)C(Cc2ccccc2)NC(C)=O)cc1-c1nc(CC)c(CC)c(=O)[nH]1 (centres unmarked) [Example 110, 2-acetamido-N-(3-(4,5-diethyl-1,6-dihydro-6-oxopyrimidin-2-yl)-4-n-propoxyphenyl)-3-phenylpropionamide] | 2.85 | 2.85 | 22.2 | 7.80 | 
5 | CCCOc1ccc(S(=O)(=O)NC(CC(N)=O)C(=O)O)cc1-c1nc(CC)c(CC)c(=O)[nH]1 (centres unmarked) [Example 126, 2-(N-(3-(4,5-diethyl-1,6-dihydro-6-oxopyrimidin-2-yl)-4-n-propoxyphenyl)sulfonyl)amino-3-aminoformylpropionic acid] | 1.79 | 1.79 | 54.9 | 30.7 | 
6 | CCCOc1ccc(S(=O)(=O)NCCCS(=O)(=O)O)cc1-c1nc(CC)c(CC)c(=O)[nH]1 [Example 124, 3-(N-(3-(4,5-diethyl-1,6-dihydro-6-oxopyrimidin-2-yl)-4-n-propoxyphenyl)sulfonyl)aminopropylsulfonic acid] | 0.13 | 0.13 | 3.76 | 28.6 | 
7 | CCCOc1ccc(NC(C)=O)cc1-c1nc(CC)c(CC)c(=O)[nH]1 [Example 53, N-(3-(1,6-dihydro-4,5-diethyl-6-oxopyrimidin-2-yl)-4-propoxyphenyl)acetamide] | 0.57 | 0.57 | 36.8 | 66.2 | 
8 | CCCOc1ccc(NC(=O)c2ccccc2)cc1-c1nc(CC)c(CC)c(=O)[nH]1 [Example 186, N-(3-(4,5-diethyl-1,6-dihydro-6-oxopyrimidin-2-yl)-4-n-propoxyphenyl)benzamide] | 0.34 | 0.34 | 7.4 | 21.4 | 
9 | CCCOc1ccc(S(=O)(=O)NCCN2CCOCC2)cc1-c1nc(CC)c(CC)c(=O)[nH]1 [Example 31, 5,6-diethyl-2-{2-n-propoxy-5-[N-(2-morpholinylethyl)aminosulfonyl)phenyl}pyrimid-4(3H)-one] | 1.36 | 1.36 | 52.8 | 38.8 | 
10 | CCCOc1ccc(S(=O)(=O)N2CCN(CCO)CC2)cc1-c1nc(CC)c(CC)c(=O)[nH]1 [Example 133, 5,6-diethyl-2-(2-n-propoxy-5-(4-hydroxyethyl-1-piperazinylsulfonyl)phenyl]pyrimid-4(3H)-one] | 1.13 | 1.31 | 20.9 | 15.9 | 
11 | CCCOc1ccc(NC(=O)NCCN(CC)CC)cc1-c1nc(CC)c(CC)c(=O)[nH]1.O=C(O)/C=C\C(=O)O [Example 204, 1-(2-(Diethylamino)ethyl)-3-(3-(4,5-diethyl-1,6-dihydro-6-oxopyrimidin-2-yl)-4-n-propoxyphenyl)urea maleate] | 0.88 | 0.88 | 54.5 | 61.9 | 
12 | CCCOc1ccc(S(=O)(=O)N2CCCC2C(=O)O)cc1-c1nc(CC)c(CC)c(=O)[nH]1 (centres unmarked) [Example 32] | 2.02 | 2.02 | 40.6 | 20.1 | 
13 | CCCOc1ccc(NC(=O)CC)cc1-c1nc(CC)c(CC)c(=O)[nH]1 [Example 54, N-(3-(1,6-dihydro-4,5-diethyl-6-oxopyrimidin-2-yl)-4-propoxyphenyl)propionamide] | 1.21 | 1.21 | 13.2 | 10.9 | 
14 | CCCOc1ccc(S(=O)(=O)NCCS(=O)(=O)O)cc1-c1nc(CC)c(CC)c(=O)[nH]1 [Example 125, 2-(N-(3-(4,5-diethyl-1,6-dihydro-6-oxopyrimidin-2-yl)-4-n-propoxyphenyl)sulfonyl)aminoethylsulfonic acid] | 0.19 | 0.19 |  | 14.6 | 2.71
15 | CCCOc1ccc(NC(N)=O)cc1-c1nc(CC)c(CC)c(=O)[nH]1 [Example 67, 1-(3-(4,5-Diethyl-1,6-dihydro-6-oxopyrimidin-2-yl)-4-n-propoxyphenyl)urea] | 1.61 | 1.61 | 26.9 | 16.7 | 
16 | CCCOc1ccc(C(=O)N2CCCC2C(N)=O)cc1-c1nc(CC)c(CC)c(=O)[nH]1 (centres unmarked) [Example 61] | 1.93 | 1.93 | 29.1 | 15.1 | 
17 | CCCOc1ccc(NC(=O)CC(=O)OCC)cc1-c1nc(CC)c(CC)c(=O)[nH]1 [Example 102, ethyl N-(3-(4,5-diethyl-1,6-dihydro-6-oxopyrimidin-2-yl)-4-n-propoxyphenyl)aminoformylacetate] | 4.61 | 4.61 | 24.6 | 5.33 | 
18 | CCCOc1ccc(C(=O)N2CCN(CCOCCO)CC2)cc1-c1nc(CC)c(CC)c(=O)[nH]1 [Example 163] | 7.92 | 7.92 | 48.6 | 6.1 | 
19 | CCCOc1ccc(C(=O)NC(Cc2ccc(O)cc2)C(=O)OC)cc1-c1nc(CC)c(CC)c(=O)[nH]1 (centres unmarked) [Example 140, methyl 2-(3-(4,5-diethyl-1,6-dihydro-6-oxopyrimidin-2-yl)-4-n-propoxybenzamido)-3-(4-hydroxyphenyl)propionate] | 0.57 | 0.57 | 4.25 | 7.5 | 
20 | CCCOc1ccc(C(=O)N2CCN(CCO)CC2)cc1-c1nc(CC)c(CC)c(=O)[nH]1 [Example 164] | 0.46 | 0.46 | 31.8 | 68.7 | 
